# According to PubChem BioAssay (NCI):
#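 Interpolation was linear, between the two tested concentrations surrounding the appropriate level; five concentrations were tested over 48 hours in 96-well plates. TGI: total growth inhibition.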
# Tests used:
# Test in all cases: NCI-60 cell line screen, 48 h
# 786-0 renal = test system: 786-0 renal
# A498 renal = test system: A498 renal
# A549 NSCLC = test system: A549 NSCLC
# ACHN renal = test system: ACHN renal
# BT-549 breast = test system: BT-549 breast
# CAKI-1 renal = test system: CAKI-1 renal
# COLO 205 colon = test system: COLO 205 colon
# DU-145 prostate = test system: DU-145 prostate
# EKVX NSCLC = test system: EKVX NSCLC
# HCT-116 colon = test system: HCT-116 colon
# HCT-15 colon = test system: HCT-15 colon
# HOP-62 NSCLC = test system: HOP-62 NSCLC
# HOP-92 NSCLC = test system: HOP-92 NSCLC
# HS 578T breast = test system: HS 578T breast
# HT29 colon = test system: HT29 colon
# IGROV1 ovarian = test system: IGROV1 ovarian
# K-562 leukemia = test system: K-562 leukemia
# KM12 colon = test system: KM12 colon
# M14 melanoma = test system: M14 melanoma
# MALME-3M melanoma = test system: MALME-3M melanoma
# MCF7 breast = test system: MCF7 breast
# MDA-MB-231 breast = test system: MDA-MB-231 breast
# MDA-MB-435 = test system: MDA-MB-435
# MDA-N = test system: MDA-N
# NCI-H226 lung = test system: NCI-H226 lung
# NCI-H23 lung = test system: NCI-H23 lung
# NCI-H460 lung = test system: NCI-H460 lung
# NCI-H522 lung = test system: NCI-H522 lung
# NCI/ADR-RES ovarian = test system: NCI/ADR-RES ovarian
# OVCAR-3 ovarian = test system: OVCAR-3 ovarian
# OVCAR-4 ovarian = test system: OVCAR-4 ovarian
# OVCAR-5 ovarian = test system: OVCAR-5 ovarian
# OVCAR-8 ovarian = test system: OVCAR-8 ovarian
# PC-3 prostate = test system: PC-3 prostate
# RPMI-8226 leukemia = test system: RPMI-8226 leukemia
# RXF 393 renal = test system: RXF 393 renal
# SF-268 CNS = test system: SF-268 CNS
# SF-295 CNS = test system: SF-295 CNS
# SF-539 CNS = test system: SF-539 CNS
# SK-MEL-2 melanoma = test system: SK-MEL-2 melanoma
# SK-MEL-28 melanoma = test system: SK-MEL-28 melanoma
# SK-MEL-5 melanoma = test system: SK-MEL-5 melanoma
# SK-OV-3 ovarian = test system: SK-OV-3 ovarian
# SN12C renal = test system: SN12C renal
# SNB-19 CNS = test system: SNB-19 CNS
# SNB-75 CNS = test system: SNB-75 CNS
# SW-620 colon = test system: SW-620 colon
# T-47D breast = test system: T-47D breast
# TK-10 renal = test system: TK-10 renal
# U251 CNS = test system: U251 CNS
# UACC-257 melanoma = test system: UACC-257 melanoma
# UACC-62 melanoma = test system: UACC-62 melanoma
# UO-31 renal = test system: UO-31 renal
# CCRF-CEM leukemia = test system: CCRF-CEM leukemia
# HCC-2998 colon = test system: HCC-2998 colon
# HL-60(TB) leukemia = test system: HL-60(TB) leukemia
# LOX IMVI melanoma = test system: LOX IMVI melanoma
# MOLT-4 leukemia = test system: MOLT-4 leukemia
# SR leukemia = test system: SR leukemia
structure (smiles),measurement,setting,value
N#Cc1c(NC(=O)CCC(=O)O)ccc2ccccc12,TGI,786-0 renal,> 100 µM
same,TGI,A498 renal,> 100 µM
same,TGI,A549 NSCLC,> 100 µM
same,TGI,ACHN renal,> 100 µM
same,TGI,BT-549 breast,> 100 µM
same,TGI,CAKI-1 renal,> 100 µM
same,TGI,COLO 205 colon,> 100 µM
same,TGI,DU-145 prostate,> 100 µM
same,TGI,EKVX NSCLC,> 100 µM
same,TGI,HCT-116 colon,> 100 µM
same,TGI,HCT-15 colon,> 100 µM
same,TGI,HOP-62 NSCLC,> 100 µM
same,TGI,HOP-92 NSCLC,> 100 µM
same,TGI,HS 578T breast,> 100 µM
same,TGI,HT29 colon,> 100 µM
same,TGI,IGROV1 ovarian,> 100 µM
same,TGI,K-562 leukemia,> 100 µM
same,TGI,KM12 colon,> 100 µM
same,TGI,M14 melanoma,> 100 µM
same,TGI,MALME-3M melanoma,> 100 µM
same,TGI,MCF7 breast,> 100 µM
same,TGI,MDA-MB-231 breast,> 100 µM
same,TGI,MDA-MB-435,> 100 µM
same,TGI,MDA-N,> 100 µM
same,TGI,NCI-H226 lung,> 100 µM
same,TGI,NCI-H23 lung,> 100 µM
same,TGI,NCI-H460 lung,> 100 µM
same,TGI,NCI-H522 lung,> 100 µM
same,TGI,NCI/ADR-RES ovarian,> 100 µM
same,TGI,OVCAR-3 ovarian,> 100 µM
same,TGI,OVCAR-4 ovarian,> 100 µM
same,TGI,OVCAR-5 ovarian,> 100 µM
same,TGI,OVCAR-8 ovarian,> 100 µM
same,TGI,PC-3 prostate,> 100 µM
same,TGI,RPMI-8226 leukemia,> 100 µM
same,TGI,RXF 393 renal,> 100 µM
same,TGI,SF-268 CNS,> 100 µM
same,TGI,SF-295 CNS,> 100 µM
same,TGI,SF-539 CNS,> 100 µM
same,TGI,SK-MEL-2 melanoma,> 100 µM
same,TGI,SK-MEL-28 melanoma,> 100 µM
same,TGI,SK-MEL-5 melanoma,> 100 µM
same,TGI,SK-OV-3 ovarian,> 100 µM
same,TGI,SN12C renal,> 100 µM
same,TGI,SNB-19 CNS,> 100 µM
same,TGI,SNB-75 CNS,> 100 µM
same,TGI,SW-620 colon,> 100 µM
same,TGI,T-47D breast,> 100 µM
same,TGI,TK-10 renal,> 100 µM
same,TGI,U251 CNS,> 100 µM
same,TGI,UACC-257 melanoma,> 100 µM
same,TGI,UACC-62 melanoma,> 100 µM
same,TGI,UO-31 renal,> 100 µM
COC(=O)C1=NN2c3ccccc3CN([C@@H](C)c3ccccc3)C(=O)[C@@H]2C1,TGI,786-0 renal,> 100 µM
same,TGI,A498 renal,> 100 µM
same,TGI,A549 NSCLC,> 100 µM
same,TGI,ACHN renal,> 100 µM
same,TGI,BT-549 breast,64.9 µM
same,TGI,CAKI-1 renal,77.7 µM
same,TGI,CCRF-CEM leukemia,> 100 µM
same,TGI,COLO 205 colon,> 100 µM
same,TGI,DU-145 prostate,> 100 µM
same,TGI,EKVX NSCLC,> 100 µM
same,TGI,HCC-2998 colon,> 100 µM
same,TGI,HCT-116 colon,> 100 µM
same,TGI,HCT-15 colon,> 100 µM
same,TGI,HL-60(TB) leukemia,48.6 µM
same,TGI,HOP-62 NSCLC,> 100 µM
same,TGI,HOP-92 NSCLC,> 100 µM
same,TGI,HS 578T breast,85.8 µM
same,TGI,HT29 colon,> 100 µM
same,TGI,IGROV1 ovarian,> 100 µM
same,TGI,K-562 leukemia,76.6 µM
same,TGI,KM12 colon,51.3 µM
same,TGI,LOX IMVI melanoma,77.1 µM
same,TGI,M14 melanoma,57.5 µM
same,TGI,MALME-3M melanoma,62.8 µM
same,TGI,MCF7 breast,> 100 µM
same,TGI,MDA-MB-231 breast,> 100 µM
same,TGI,MDA-MB-435,34 µM
same,TGI,MDA-N,> 100 µM
same,TGI,MOLT-4 leukemia,46.5 µM
same,TGI,NCI-H226 lung,> 100 µM
same,TGI,NCI-H23 lung,> 100 µM
same,TGI,NCI-H460 lung,> 100 µM
same,TGI,NCI-H522 lung,53.1 µM
same,TGI,NCI/ADR-RES ovarian,56.1 µM
same,TGI,OVCAR-3 ovarian,97.9 µM
same,TGI,OVCAR-4 ovarian,26.1 µM
same,TGI,OVCAR-5 ovarian,> 100 µM
same,TGI,OVCAR-8 ovarian,> 100 µM
same,TGI,PC-3 prostate,> 100 µM
same,TGI,RPMI-8226 leukemia,62.7 µM
same,TGI,RXF 393 renal,> 100 µM
same,TGI,SF-268 CNS,> 100 µM
same,TGI,SF-295 CNS,> 100 µM
same,TGI,SF-539 CNS,> 100 µM
same,TGI,SK-MEL-2 melanoma,74.1 µM
same,TGI,SK-MEL-28 melanoma,> 100 µM
same,TGI,SK-MEL-5 melanoma,32.7 µM
same,TGI,SK-OV-3 ovarian,> 100 µM
same,TGI,SN12C renal,> 100 µM
same,TGI,SNB-19 CNS,> 100 µM
same,TGI,SR leukemia,82.9 µM
same,TGI,SW-620 colon,> 100 µM
same,TGI,T-47D breast,40.1 µM
same,TGI,TK-10 renal,> 100 µM
same,TGI,U251 CNS,> 100 µM
same,TGI,UACC-257 melanoma,> 100 µM
same,TGI,UACC-62 melanoma,66.8 µM
same,TGI,UO-31 renal,60.7 µM
O=C1/C(=C\c2ccccc2)c2ccccc2N1Cc1ccccc1,TGI,786-0 renal,23 µM
same,TGI,A549 NSCLC,22.5 µM
same,TGI,ACHN renal,25.1 µM
same,TGI,BT-549 breast,14.2 µM
same,TGI,CAKI-1 renal,13.2 µM
same,TGI,CCRF-CEM leukemia,12.6 µM
same,TGI,COLO 205 colon,33.3 µM
same,TGI,DU-145 prostate,17 µM
same,TGI,EKVX NSCLC,17.1 µM
same,TGI,HCC-2998 colon,16.4 µM
same,TGI,HCT-116 colon,12.4 µM
same,TGI,HCT-15 colon,14.5 µM
same,TGI,HL-60(TB) leukemia,> 31.6 µM
same,TGI,HOP-62 NSCLC,17.6 µM
same,TGI,HOP-92 NSCLC,13.8 µM
same,TGI,HS 578T breast,20.9 µM
same,TGI,HT29 colon,14.4 µM
same,TGI,IGROV1 ovarian,16.5 µM
same,TGI,K-562 leukemia,> 31.3 µM
same,TGI,KM12 colon,13.9 µM
same,TGI,LOX IMVI melanoma,17 µM
same,TGI,M14 melanoma,23.9 µM
same,TGI,MALME-3M melanoma,12.8 µM
same,TGI,MCF7 breast,12.3 µM
same,TGI,MDA-MB-231 breast,13.3 µM
same,TGI,MDA-MB-435,16.5 µM
same,TGI,MDA-N,13.4 µM
same,TGI,MOLT-4 leukemia,5.4 µM
same,TGI,NCI-H226 lung,35.6 µM
same,TGI,NCI-H23 lung,16.8 µM
same,TGI,NCI-H460 lung,19 µM
same,TGI,NCI-H522 lung,22 µM
same,TGI,NCI/ADR-RES ovarian,19.2 µM
same,TGI,OVCAR-3 ovarian,11.9 µM
same,TGI,OVCAR-4 ovarian,27.5 µM
same,TGI,OVCAR-5 ovarian,15.2 µM
same,TGI,OVCAR-8 ovarian,19 µM
same,TGI,PC-3 prostate,15.9 µM
same,TGI,RPMI-8226 leukemia,9.28 µM
same,TGI,RXF 393 renal,16.1 µM
same,TGI,SF-268 CNS,14.8 µM
same,TGI,SF-295 CNS,16.2 µM
same,TGI,SK-MEL-2 melanoma,17.1 µM
same,TGI,SK-MEL-28 melanoma,15.7 µM
same,TGI,SK-MEL-5 melanoma,15.8 µM
same,TGI,SK-OV-3 ovarian,15.8 µM
same,TGI,SN12C renal,28.9 µM
same,TGI,SNB-19 CNS,15 µM
same,TGI,SNB-75 CNS,22.8 µM
same,TGI,SR leukemia,9.66 µM
same,TGI,SW-620 colon,15.1 µM
same,TGI,T-47D breast,15.1 µM
same,TGI,TK-10 renal,17.4 µM
same,TGI,U251 CNS,15.2 µM
same,TGI,UACC-257 melanoma,17.6 µM
same,TGI,UACC-62 melanoma,14.3 µM
same,TGI,UO-31 renal,15.8 µM
